Source: US9567302B2, “Carbamate compounds and of making and using same” (Abide Therapeutics, Inc., priority 2012, dated 2017)

Assays:
Assay type in all cases: biochemical
Parameters in all cases: from tissue; host or cells: mouse brain membrane fraction
Conditions in all cases: 30 min preincubation at 37° C.
[1] = biological target: T1, MAGL (Mus musculus, UniProt O35678); test: In vitro competitive activity-based protein profiling (FP-Rh), mouse MAGL
T1 sequence (O35678 1-303): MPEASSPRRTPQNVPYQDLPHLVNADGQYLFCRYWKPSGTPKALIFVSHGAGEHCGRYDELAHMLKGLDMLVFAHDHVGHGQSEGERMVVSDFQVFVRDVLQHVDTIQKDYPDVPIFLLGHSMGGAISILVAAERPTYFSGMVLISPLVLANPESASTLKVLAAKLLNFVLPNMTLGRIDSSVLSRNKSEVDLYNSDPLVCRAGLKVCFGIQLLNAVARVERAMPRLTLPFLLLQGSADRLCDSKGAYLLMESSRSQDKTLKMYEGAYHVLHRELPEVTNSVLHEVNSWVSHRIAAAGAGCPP
Procedure: (§1) In Vitro Competitive Activity-Based Protein Profiling.
(§2) Proteomes (mouse brain membrane fraction or cell lysates) (50 μL, 1.0 mg/ml total protein concentration) were preincubated with varying concentrations of inhibitors at 37° C. After 30 min, FP-Rh (1.0 μL, 50 μM in DMSO) was added and the mixture was incubated for another 30 min at 37° C. Reactions were quenched with SDS loading buffer (50 μL—4×) and run on SDS-PAGE.

[2] = biological target: T2, ABHD6 (Mus musculus, UniProt Q8R2Y0); test: In vitro competitive activity-based protein profiling (FP-Rh), mouse ABHD6
T2 sequence (Q8R2Y0 1-336): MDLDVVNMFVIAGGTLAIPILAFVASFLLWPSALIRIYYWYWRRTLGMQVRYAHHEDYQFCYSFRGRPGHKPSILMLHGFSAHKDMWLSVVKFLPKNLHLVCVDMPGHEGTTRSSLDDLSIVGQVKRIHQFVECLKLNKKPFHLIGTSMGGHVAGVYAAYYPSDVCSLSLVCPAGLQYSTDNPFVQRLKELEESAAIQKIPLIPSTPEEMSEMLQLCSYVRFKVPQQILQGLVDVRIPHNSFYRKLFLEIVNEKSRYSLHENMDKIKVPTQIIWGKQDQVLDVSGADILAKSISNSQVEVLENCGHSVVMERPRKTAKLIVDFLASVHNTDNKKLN
Procedure: as §1, §2

[3] = biological target: T3, FAAH (Mus musculus, UniProt O08914); test: In vitro competitive activity-based protein profiling (FP-Rh), mouse FAAH
T3 sequence (O08914 1-579): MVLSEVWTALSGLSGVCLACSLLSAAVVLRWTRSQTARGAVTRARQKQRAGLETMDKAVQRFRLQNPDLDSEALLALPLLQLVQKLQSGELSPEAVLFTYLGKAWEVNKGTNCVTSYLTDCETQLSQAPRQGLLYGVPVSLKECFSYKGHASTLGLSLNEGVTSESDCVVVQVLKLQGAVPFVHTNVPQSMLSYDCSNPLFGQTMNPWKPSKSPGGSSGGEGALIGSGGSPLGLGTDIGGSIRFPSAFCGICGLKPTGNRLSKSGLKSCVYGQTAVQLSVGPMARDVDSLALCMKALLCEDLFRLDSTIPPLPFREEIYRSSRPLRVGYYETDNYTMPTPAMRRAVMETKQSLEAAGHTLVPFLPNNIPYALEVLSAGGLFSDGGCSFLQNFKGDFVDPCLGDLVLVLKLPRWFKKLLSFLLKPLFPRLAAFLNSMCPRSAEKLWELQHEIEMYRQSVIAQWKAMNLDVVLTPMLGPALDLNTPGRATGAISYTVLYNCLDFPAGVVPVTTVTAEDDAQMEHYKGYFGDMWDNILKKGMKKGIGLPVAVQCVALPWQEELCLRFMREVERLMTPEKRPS
Procedure: as §1, §2

O=C(ON1C(=O)CCC1=O)N1CCN(Cc2ccc(F)c(N3CCCC3)c2)CC1 [Example 124, 2,5-Dioxopyrrolidin-1-yl 4-(4-fluoro-3-(pyrrolidin-1-yl)benzyl)piperazine-1-carboxylate]
IC50 ([1]; Table 2, mouse proteome): < 100 nM
IC50 ([2]; Table 2, mouse proteome): 100 to 1000 nM
IC50 ([3]; Table 2, mouse proteome): > 10000 nM

CC(C)(C)OC(=O)N1CCN(C(=O)ON2C(=O)CCC2=O)CC1 [Example 4, 1-tert-Butyl 4-(2,5-dioxopyrrolidin-1-yl) piperazine-1,4-dicarboxylate]
IC50 ([1]; Table 1, mouse proteome): > 10000 nM
IC50 ([2]; Table 1, mouse proteome): > 10000 nM
IC50 ([3]; Table 1, mouse proteome): > 10000 nM

COc1cc(N2CCOCC2)ccc1CN1CCN(C(=O)ON2C(=O)CCC2=O)CC1 [Example 67, 2,5-Dioxopyrrolidin-1-yl 4-(2-methoxy-4-morpholinobenzyl)piperazine-1-carboxylate]
IC50 ([1]; Table 2, mouse proteome): 1000 to 10000 nM
IC50 ([2]; Table 2, mouse proteome): 1000 to 10000 nM
IC50 ([3]; Table 2, mouse proteome): 1000 to 10000 nM

O=C(ON1C(=O)CCC1=O)N1CCN(Cc2cccc(F)c2N2CCCC2)CC1 [Example 107, 2,5-Dioxopyrrolidin-1-yl 4-{[3-fluoro-2-(pyrrolidin-1-yl)phenyl]methyl}piperazine-1-carboxylate]
IC50 ([1]; Table 2, mouse proteome): < 100 nM
IC50 ([2]; Table 2, mouse proteome): 100 to 1000 nM
IC50 ([3]; Table 2, mouse proteome): > 10000 nM

O=C(ON1C(=O)CCC1=O)N1CCN(Cc2cc(Cl)ccc2N2CCOCC2)CC1 [Example 92, 2,5-Dioxopyrrolidin-1-yl 4-{[5-chloro-2-(morpholin-4-yl)phenyl]methyl}piperazine-1-carboxylate]
IC50 ([1]; Table 2, mouse proteome): 100 to 1000 nM
IC50 ([2]; Table 2, mouse proteome): 1000 to 10000 nM
IC50 ([3]; Table 2, mouse proteome): > 10000 nM

CC(C)c1cc(-c2ccccc2)ccc1CN1CCN(C(=O)ON2C(=O)CCC2=O)CC1 [Example 188, 2,5-Dioxopyrrolidin-1-yl 4-{[4-phenyl-2-(propan-2-yl)phenyl]methyl}piperazine-1-carboxylate]
IC50 ([1]; Table 2, mouse proteome): 100 to 1000 nM
IC50 ([2]; Table 2, mouse proteome): 1000 to 10000 nM
IC50 ([3]; Table 2, mouse proteome): > 10000 nM

O=C(ON1C(=O)CCC1=O)N1CCN(Cc2ccc(-c3ccccc3)cc2C(=O)N2CCCC2)CC1 [Example 191, 2,5-Dioxopyrrolidin-1-yl 4-{[4-phenyl-2-(pyrrolidine-1-carbonyl)phenyl]methyl}piperazine-1-carboxylate]
IC50 ([1]; Table 2, mouse proteome): 100 to 1000 nM
IC50 ([2]; Table 2, mouse proteome): 1000 to 10000 nM
IC50 ([3]; Table 2, mouse proteome): > 10000 nM

O=C(ON1C(=O)CCC1=O)N1CCN(Cc2cccc(N3CCCCC3)c2)CC1 [Example 133, 2,5-Dioxopyrrolidin-1-yl 4-(3-(piperidin-1-yl)benzyl)piperazine-1-carboxylate]
IC50 ([1]; Table 2, mouse proteome): < 100 nM
IC50 ([2]; Table 2, mouse proteome): < 100 nM
IC50 ([3]; Table 2, mouse proteome): > 10000 nM

CC1CCCCN1C(=O)ON1C(=O)CCC1=O (stereo not drawn) [Example 10, 2,5-Dioxopyrrolidin-1-yl 2-methylpiperidine-1-carboxylate]
IC50 ([1]; Table 1, mouse proteome): > 10000 nM
IC50 ([2]; Table 1, mouse proteome): > 10000 nM
IC50 ([3]; Table 1, mouse proteome): > 10000 nM

CC(=O)NC1CCN(c2cc(Cl)ccc2CN2CCN(C(=O)ON3C(=O)CCC3=O)CC2)C1 (stereo not drawn) [Example 85, 2,5-Dioxopyrrolidin-1-yl 4-(2-(3-acetamidopyrrolidin-1-yl)-4-chlorobenzyl)piperazine-1-carboxylate]
IC50 ([1]; Table 2, mouse proteome): < 100 nM
IC50 ([2]; Table 2, mouse proteome): 1000 to 10000 nM
IC50 ([3]; Table 2, mouse proteome): > 10000 nM

CC(C)C1NC(=O)N(OC(=O)N2CCN(C(c3ccc(Cl)cc3)c3ccc(Cl)cc3)CC2)C1=O (stereo not drawn) [Example 47, 4-Isopropyl-2,5-dioxoimidazolidin-1-yl 4-(bis(4-chlorophenyl)methyl)piperazine-1-carboxylate]
IC50 ([1]; Table 1, mouse proteome): 100 to 1000 nM
IC50 ([2]; Table 1, mouse proteome): 100 to 1000 nM
IC50 ([3]; Table 1, mouse proteome): > 10000 nM

O=C(ON1C(=O)CCC1=O)N1CCN(Cc2ccc(N3CCOCC3)c(Cl)c2)CC1 [Example 101, 2,5-dioxopyrrolidin-1-yl 4-(3-chloro-4-morpholinobenzyl)piperazine-1-carboxylate]
IC50 ([1]; Table 2, mouse proteome): 1000 to 10000 nM
IC50 ([2]; Table 2, mouse proteome): 100 to 1000 nM
IC50 ([3]; Table 2, mouse proteome): > 10000 nM

O=C(ON1C(=O)CCC1=O)N1CCN(Cc2ccc(Cl)cc2N2Cc3cccnc3C2)CC1 [Example 114, 2,5-Dioxopyrrolidin-1-yl 4-[(4-chloro-2-{5H,6H,7H-pyrrolo[3,4-b]pyridin-6-yl}phenyl)methyl]piperazine-1-carboxylate]
IC50 ([1]; Table 2, mouse proteome): < 100 nM
IC50 ([2]; Table 2, mouse proteome): 100 to 1000 nM
IC50 ([3]; Table 2, mouse proteome): > 10000 nM

O=C1CCC(=O)N1OC(=O)N1CCCCC1C(F)(F)F (stereo not drawn) [Example 24, 2,5-Dioxopyrrolidin-1-yl 2-(trifluoromethyl)piperidine-1-carboxylate]
IC50 ([1]; Table 1, mouse proteome): > 10000 nM
IC50 ([2]; Table 1, mouse proteome): > 10000 nM
IC50 ([3]; Table 1, mouse proteome): > 10000 nM

O=C(ON1C(=O)C2CCCCC2C1=O)N1CCN(C(c2ccc(Cl)cc2)c2ccc(Cl)cc2)CC1 (stereo not drawn) [Example 45, 1,3-Dioxohexahydro-1H-isoindol-2(3H)-yl 4-(bis(4-chlorophenyl)methyl)piperazine-1-carboxylate]
IC50 ([1]; Table 1, mouse proteome): 1000 to 10000 nM
IC50 ([2]; Table 1, mouse proteome): 100 to 1000 nM
IC50 ([3]; Table 1, mouse proteome): > 10000 nM

CCCC1CC(=O)N(OC(=O)N2CCN(C(c3ccc(Cl)cc3)c3ccc(Cl)cc3)CC2)C1=O (stereo not drawn) [Example 43, 2,5-Dioxo-3-propylpyrrolidin-1-yl 4-(bis(4-chlorophenyl)methyl)piperazine-1-carboxylate]
IC50 ([1]; Table 1, mouse proteome): 100 to 1000 nM
IC50 ([2]; Table 1, mouse proteome): 100 to 1000 nM
IC50 ([3]; Table 1, mouse proteome): > 10000 nM

CN1CC(=O)N(OC(=O)N2CCC(CCc3ccc(Cl)cc3)CC2)C1=O [Example 49, 3-Methyl-2,5-dioxoimidazolidin-1-yl 4-(4-chlorophenethyl)piperidine-1-carboxylate]
IC50 ([1]; Table 1, mouse proteome): < 100 nM
IC50 ([2]; Table 1, mouse proteome): < 100 nM
IC50 ([3]; Table 1, mouse proteome): 100 to 1000 nM

COc1ccc(CN2CCN(C(=O)ON3C(=O)CCC3=O)CC2)cc1 [Example 70, 2,5-Dioxopyrrolidin-1-yl 4-(4-methoxybenzyl)piperazine-1-carboxylate]
IC50 ([1]; Table 2, mouse proteome): 1000 to 10000 nM
IC50 ([2]; Table 2, mouse proteome): 1000 to 10000 nM
IC50 ([3]; Table 2, mouse proteome): 1000 to 10000 nM

CN(C)C(=O)ON1C(=O)CC(c2ccccc2)C1=O (stereo not drawn) [Example 59, 2,5-Dioxo-3-phenylpyrrolidin-1-yl dimethylcarbamate]
IC50 ([1]; Table 1, mouse proteome): > 10000 nM
IC50 ([2]; Table 1, mouse proteome): > 10000 nM
IC50 ([3]; Table 1, mouse proteome): > 10000 nM

O=C(ON1C(=O)CN(Cc2ccccc2)C1=O)N1CCC(CCc2ccc(Cl)cc2)CC1 [Example 50, 3-Benzyl-2,5-dioxoimidazolidin-1-yl 4-(4-chlorophenethyl)piperidine-1-carboxylate]
IC50 ([1]; Table 1, mouse proteome): 100 to 1000 nM
IC50 ([2]; Table 1, mouse proteome): < 100 nM
IC50 ([3]; Table 1, mouse proteome): < 100 nM

O=C(ON1C(=O)CNC1=O)N1CCC(CCc2ccc(Cl)cc2)CC1 [Example 48, 2,5-Dioxoimidazolidin-1-yl 4-(4-chlorophenethyl)piperidine-1-carboxylate]
IC50 ([1]; Table 1, mouse proteome): < 100 nM
IC50 ([2]; Table 1, mouse proteome): < 100 nM
IC50 ([3]; Table 1, mouse proteome): < 100 nM

O=C(ON1C(=O)CCC1=O)N1CCN(Cc2c(Cl)cccc2N2CCCC2)CC1 [Example 97, 2,5-Dioxopyrrolidin-1-yl 4-{[2-chloro-6-(pyrrolidin-1-yl)phenyl]methyl}piperazine-1-carboxylate]
IC50 ([1]; Table 2, mouse proteome): 1000 to 10000 nM
IC50 ([2]; Table 2, mouse proteome): 100 to 1000 nM
IC50 ([3]; Table 2, mouse proteome): > 10000 nM

O=C(ON1C(=O)CCC1=O)N1CCN(Cc2ccc(N3CCCC3)cc2OC(F)(F)F)CC1 [Example 104, 2,5-Dioxopyrrolidin-1-yl 4-{[4-(pyrrolidin-1-yl)-2-(trifluoromethoxy)phenyl]methyl}piperazine-1-carboxylate]
IC50 ([1]; Table 2, mouse proteome): 100 to 1000 nM
IC50 ([2]; Table 2, mouse proteome): 100 to 1000 nM
IC50 ([3]; Table 2, mouse proteome): > 10000 nM

Cc1ccc(CN2CCN(C(=O)ON3C(=O)CCC3=O)CC2)cc1 [Example 71, 2,5-Dioxopyrrolidin-1-yl 4-(4-methylbenzyl)piperazine-1-carboxylate]
IC50 ([1]; Table 2, mouse proteome): 100 to 1000 nM
IC50 ([2]; Table 2, mouse proteome): 1000 to 10000 nM
IC50 ([3]; Table 2, mouse proteome): 1000 to 10000 nM
